One block for each compound: values may come before it.
Key:
[1] = tested on: IAPP; parameters: method as in PMID 40305223; details: cited from earlier work
[2] = tested on: human islets exposed to amylin; parameters: method as in PMID 34614009; details: cited from earlier work
[3] = ABTS radical scavenging activity; details: mean ± SD, three independent assays
Experimental: [50]. A volume of 10 μL of the extract was mixed with 1 mL of ABTS+ solution previously diluted to reach an absorbance of approximately 0.70 ± 0.05 (mean ± SD). After 1 min of incubation, the absorbance was recorded at 734 nm. Trolox (6-hydroxy-2,5,7,8-tetramethylchroman-2-carboxylic acid) was employed as the reference antioxidant. Results were expressed as the effective concentration required to achieve 50% reduction of the initial absorbance (EC50).

Compound: epigallocatechin 3-gallate
IAPP aggregation [1]: reduce IAPP aggregation

Compound: OC[C@H]1O[C@@H](Oc2cc3c(O)cc(O)cc3[o+]c2-c2ccc(O)c(O)c2)[C@H](O)[C@@H](O)[C@@H]1O [cyanidin 3-O-glucoside, cyanidin-3-O-glucoside]
amyloid formation in human islets exposed to amylin [2]: inhibit amyloid formation
cell viability of human islets exposed to amylin [2]: increase cell viability

Compound: COc1cc(/C=C/C(=O)CC(=O)/C=C/c2ccc(O)c(OC)c2)ccc1O [curcumin]
IAPP aggregation [1]: reduce IAPP aggregation

ABTS EC50 [3]: 3.4 ± 0.3 µg/mL
Compound: Cc1c(C)c2c(c(C)c1O)CCC(C)(C(=O)O)O2 (centres unmarked) [Trolox, 6-hydroxy-2,5,7,8-tetramethylchroman-2-carboxylic acid]
